Experimental data published in PubChem BioAssay (NCI).
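The compound was tested at five concentrations on cells cultured in 96-well plates, with a 48-hour exposure period. TGI: total growth inhibition.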

Key:
Assay in all cases: inhibition of tumour cell growth, NCI panel, 48 h
SF-268 CNS = tested on: SF-268 CNS
TK-10 renal = tested on: TK-10 renal
SK-MEL-2 melanoma = tested on: SK-MEL-2 melanoma
SF-295 CNS = tested on: SF-295 CNS
T-47D breast = tested on: T-47D breast
SNB-19 CNS = tested on: SNB-19 CNS
CAKI-1 renal = tested on: CAKI-1 renal
786-0 renal = tested on: 786-0 renal
COLO 205 colon = tested on: COLO 205 colon
MCF7 breast = tested on: MCF7 breast
UO-31 renal = tested on: UO-31 renal
SK-MEL-28 melanoma = tested on: SK-MEL-28 melanoma
SR leukemia = tested on: SR leukemia
LOX IMVI melanoma = tested on: LOX IMVI melanoma
KM12 colon = tested on: KM12 colon
HCT-116 colon = tested on: HCT-116 colon
HCT-15 colon = tested on: HCT-15 colon
SNB-75 CNS = tested on: SNB-75 CNS
A498 renal = tested on: A498 renal
HT29 colon = tested on: HT29 colon
PC-3 prostate = tested on: PC-3 prostate
HOP-92 NSCLC = tested on: HOP-92 NSCLC
SW-620 colon = tested on: SW-620 colon
HOP-62 NSCLC = tested on: HOP-62 NSCLC
K-562 leukemia = tested on: K-562 leukemia
MALME-3M melanoma = tested on: MALME-3M melanoma
SK-MEL-5 melanoma = tested on: SK-MEL-5 melanoma
NCI-H460 lung = tested on: NCI-H460 lung
HS 578T breast = tested on: HS 578T breast
SK-OV-3 ovarian = tested on: SK-OV-3 ovarian
IGROV1 ovarian = tested on: IGROV1 ovarian
UACC-62 melanoma = tested on: UACC-62 melanoma
RPMI-8226 leukemia = tested on: RPMI-8226 leukemia
MDA-MB-435 = tested on: MDA-MB-435
HCC-2998 colon = tested on: HCC-2998 colon
RXF 393 renal = tested on: RXF 393 renal
A549 NSCLC = tested on: A549 NSCLC
NCI-H23 lung = tested on: NCI-H23 lung
HL-60(TB) leukemia = tested on: HL-60(TB) leukemia
UACC-257 melanoma = tested on: UACC-257 melanoma
M14 melanoma = tested on: M14 melanoma
CCRF-CEM leukemia = tested on: CCRF-CEM leukemia
MDA-MB-231 breast = tested on: MDA-MB-231 breast
BT-549 breast = tested on: BT-549 breast
OVCAR-3 ovarian = tested on: OVCAR-3 ovarian
NCI/ADR-RES ovarian = tested on: NCI/ADR-RES ovarian
EKVX NSCLC = tested on: EKVX NSCLC
DU-145 prostate = tested on: DU-145 prostate
MOLT-4 leukemia = tested on: MOLT-4 leukemia
OVCAR-5 ovarian = tested on: OVCAR-5 ovarian
OVCAR-8 ovarian = tested on: OVCAR-8 ovarian
OVCAR-4 ovarian = tested on: OVCAR-4 ovarian
NCI-H226 lung = tested on: NCI-H226 lung
ACHN renal = tested on: ACHN renal
SF-539 CNS = tested on: SF-539 CNS

Measured: TGI

Cn1c(-c2cccc(N)c2)[n+](C)c2ccccc21
> 100 µM: all assays above
